Reference: patent publication US9603859B2, “Methods and products for increasing the rate of healing of tissue wounds” (BRIGHAM YOUNG UNIVERSITY, priority 2011, dated 2017)

Legend:
primary human MSC cells = assay: Wound healing array q-PCR gene expression in mesenchymal stem cells; format: cell-based; conditions: 8 hours treatment
Description: To determine the role of synthetic Ceragenins CSA-13, 44 and 90 in wound healing using mesenchymal stem cells (MSC), targeted mRNA panels from SABiosciences, and primary cells from Lonza were selected. Cells were purchased from Lonza.com and used fresh for each test using recommended media and culture conditions. After treatment, mRNA was isolated using Qiagen RNeasy Mini Kit®, and quantified using a NanoDrop 2000® by UV at 260 nm and 260/280 ratio for purity. cDNA was made using a First Strand Kit® from SABiosciences and processed for real time PCR using a kit from the same company for selected analysis of wound healing pathways. Results from q-PCR were uploaded to the SABiosciences site and to Ingenuity.com web site for analysis and pathway mapping. SABiosciences wound healing array plates (Cat# PAHS-121) and innate/acquired immune response plates (PAHS-052) were used. These arrays are fully validated when used as recommended. On day 1, primary human MSC cells were plated at 200,000 cells/well using 6-well plates with 3 ml of recommended media—hMSC Basal Medium+BulletKit (50 ml Growth Supplement, 10 ml L-Glutamine and 0.5 ml Gentamicin Sulfate Amphotercin-B) for 24 hours. Only early passages of cells were used, and never from frozen stock. On day 2, cells were treated with compounds dissolved in DMSO diluted 1:1000 or more to avoid effects of the solvent. Final testing concentration for CSA-13 was 5.0 μM. Treatment lasted 8 hours, and was followed by RNA isolation using QIAGEN RNeasy Mini Kit® (74104). RNA was measured at 260/280 nm using a NanoDrop 2000® and normalized to 2.4 ng per well, cDNA preparation was done using QIAGEN First Strand kit 330401. q-PCR was run as absolute quantification and threshold set at 0.1 units. Dendritic cells were plated at 500,000 cells/well using 24-well plate with 500 ul of Lonza LGM-3 Complete Growth Medium with and without compound. Treatment lasted 8 hours, and was followed by RNA isolation using QIAGEN RNeasy Mini Kit® (74104). RNA was measured at 260/280 nm using NanoDrop2000® and normalized to 2.4 ng per well, cDNA preparation was done using QIAGEN First Strand kit 330401. PCR was run as absolute quantification and threshold set at 0.1 units. For the wound healing array, strong upregulation of growth factors such as HB-EGF and cell migration factors such as MMP1 and CXCL2 were found, indicating a clear potential for CSA as a modulator of wound healing. Additional gene expression data is provided in Tables 1-3 for CSA-13, 44, and 90, respectively.

[1] = test system: Mixed-species biofilms of S. aureus and P. aeruginosa; assay: Mixed-species biofilm susceptibility, live/dead staining; format: cell-based; conditions: biofilms grown in collagen-coated plates for 24 hours

What does the source list for `CCCCCCCCNCCC[C@@H](C)[C@H]1CC[C@H]2[C@@H]3[C@H](OCCCN)C[C@@H]4C[C@H](OCCCN)CC[C@]4(C)[C@H]3C[C@H](OCCCN)[C@]12C` [CSA-13]?
Fold Regulation ANGPT1 (primary human MSC cells; CSA-13 at 5.0 μM): −2.0046; Fold Regulation CCL7 (primary human MSC cells; CSA-13 at 5.0 μM): 1.6632; Fold Regulation CSF2 (primary human MSC cells; CSA-13 at 5.0 μM): −2.4867; Fold Regulation CXCL1 (primary human MSC cells; CSA-13 at 5.0 μM): 1.6181; Fold Regulation CXCL2 (primary human MSC cells; CSA-13 at 5.0 μM): 4.873; Fold Regulation CXCL5 (primary human MSC cells; CSA-13 at 5.0 μM): 2.0582; Fold Regulation F3 (primary human MSC cells; CSA-13 at 5.0 μM): −3.3945; Fold Regulation F13A1 (primary human MSC cells; CSA-13 at 5.0 μM): 2.0916; Fold Regulation FGF2 (primary human MSC cells; CSA-13 at 5.0 μM): −1.633; Fold Regulation FGF10 (primary human MSC cells; CSA-13 at 5.0 μM): 3.8659; Fold Regulation HBEGF (primary human MSC cells; CSA-13 at 5.0 μM): 3.255; Fold Regulation IL2 (primary human MSC cells; CSA-13 at 5.0 μM): 1.865; Fold Regulation IL4 (primary human MSC cells; CSA-13 at 5.0 μM): −1.9944; Fold Regulation IL6 (primary human MSC cells; CSA-13 at 5.0 μM): 3.1692; Fold Regulation IL10 (primary human MSC cells; CSA-13 at 5.0 μM): −1.6166; Fold Regulation ITGA2 (primary human MSC cells; CSA-13 at 5.0 μM): 3.5659; Fold Regulation ITGB3 (primary human MSC cells; CSA-13 at 5.0 μM): −1.5243; Fold Regulation MMP1 (primary human MSC cells; CSA-13 at 5.0 μM): 4.4172; Fold Regulation PLAT (primary human MSC cells; CSA-13 at 5.0 μM): −2.1487; Fold Regulation PLAU (primary human MSC cells; CSA-13 at 5.0 μM): 1.7849; Fold Regulation PLAUR (primary human MSC cells; CSA-13 at 5.0 μM): 1.6286; Fold Regulation PTGS2 (primary human MSC cells; CSA-13 at 5.0 μM): 3.3333; Fold Regulation VEGFA (primary human MSC cells; CSA-13 at 5.0 μM): 1.7274; Fold Regulation VTN (primary human MSC cells; CSA-13 at 5.0 μM): 2.0612

How did the “Fold Regulation ACTA2” value (primary human MSC cells) turn out when `CCCCCN(CCCCC)CCC[C@@H](C)[C@H]1CC[C@H]2[C@@H]3[C@H](OCCCN)C[C@@H]4C[C@H](OCCCN)CC[C@]4(C)[C@H]3C[C@H](OCCCN)[C@]12C` [CSA-90] was run?
The value was −2.5014.

What about the “Fold Regulation ACTB” value (primary human MSC cells) of the same compound?
The value was −2.0745.

And the “Fold Regulation CCL2” value (primary human MSC cells)?
The value was −1.5793.

And the “Fold Regulation COL4A3” value (primary human MSC cells)?
Its value is −1.6195.

And the “Fold Regulation CTGF” value (primary human MSC cells)?
The value was −15.7171.

And the “Fold Regulation CTSK” value (primary human MSC cells)?
Its value is 1.5366.

And the “Fold Regulation CTSL2” value (primary human MSC cells)?
Its value is 1.6306.

What about the “Fold Regulation EGFR” value (primary human MSC cells) of the same compound?
Its value is 1.6212.

And the “Fold Regulation FGF7” value (primary human MSC cells)?
Its value is 5.1689.

And the “Fold Regulation HGF” value (primary human MSC cells)?
The value was 2.3334.

What about the “Fold Regulation IFNG” value (primary human MSC cells) of the same compound?
The value was 1.839.

And the “Fold Regulation IGF1” value (primary human MSC cells)?
Its value is 2.2724.

And the “Fold Regulation ITGA3” value (primary human MSC cells)?
The value was −1.5127.

What about the “Fold Regulation ITGB6” value (primary human MSC cells) of the same compound?
Its value is 1.9381.

What about the “Fold Regulation MMP9” value (primary human MSC cells) of the same compound?
The value was 2.5652.

What about the “Fold Regulation SERPINE1” value (primary human MSC cells) of the same compound?
The value was −3.7307.

And the “Fold Regulation TGFBR3” value (primary human MSC cells)?
Its value is −1.5938.

What about the “Fold Regulation TIMP1” value (primary human MSC cells) of the same compound?
Its value is 1.8212.

And the “Fold Regulation WISP1” value (primary human MSC cells)?
The value was −2.3543.

What about the “Fold Regulation ANGPT1” value (primary human MSC cells; CSA-13 at 5.0 μM) of the same compound?
The value was −1.915.

What about the “Fold Regulation CCL7” value (primary human MSC cells; CSA-13 at 5.0 μM) of the same compound?
Its value is 2.2874.

And the “Fold Regulation CXCL1” value (primary human MSC cells; CSA-13 at 5.0 μM)?
Its value is 3.1083.

What about the “Fold Regulation CXCL2” value (primary human MSC cells; CSA-13 at 5.0 μM) of the same compound?
Its value is 36.5878.

And the “Fold Regulation F13A1” value (primary human MSC cells; CSA-13 at 5.0 μM)?
The value was 2.1032.

What about the “Fold Regulation FGF10” value (primary human MSC cells; CSA-13 at 5.0 μM) of the same compound?
The value was 1.9842.

And the “Fold Regulation HBEGF” value (primary human MSC cells; CSA-13 at 5.0 μM)?
Its value is 3.5988.

What about the “Fold Regulation IL2” value (primary human MSC cells; CSA-13 at 5.0 μM) of the same compound?
The value was 1.8522.

What about the “Fold Regulation IL6” value (primary human MSC cells; CSA-13 at 5.0 μM) of the same compound?
Its value is 7.2299.

And the “Fold Regulation IL10” value (primary human MSC cells; CSA-13 at 5.0 μM)?
The value was −1.7382.

What about the “Fold Regulation ITGA2” value (primary human MSC cells; CSA-13 at 5.0 μM) of the same compound?
The value was 14.3637.

And the “Fold Regulation ITGB3” value (primary human MSC cells; CSA-13 at 5.0 μM)?
Its value is −1.538.

What about the “Fold Regulation MMP1” value (primary human MSC cells; CSA-13 at 5.0 μM) of the same compound?
Its value is 45.3753.

What about the “Fold Regulation PLAT” value (primary human MSC cells; CSA-13 at 5.0 μM) of the same compound?
The value was −2.14.

And the “Fold Regulation PLAUR” value (primary human MSC cells; CSA-13 at 5.0 μM)?
The value was 1.9924.

And the “Fold Regulation PTGS2” value (primary human MSC cells; CSA-13 at 5.0 μM)?
The value was 66.6189.

And the “Fold Regulation VEGFA” value (primary human MSC cells; CSA-13 at 5.0 μM)?
The value was 3.3257.

For Dermaseptin S1, which anti-biofilm activity [1] is on record?
The anti-biofilm activity was “increased in anti-biofilm activity when shortened to the first 15 amino acids”.
